Assay results published in US8530512B2, “Broad spectrum gram-positive antimicrobials and anthelmintics with efficacy against drug-resistant strains and Mycobacterium species” (priority 2004, dated 2013).
In brackets after ≈: the same amount, converted by molar mass. Read-outs that look alike come from different tables or passages of the source.

Columns and labels:
[1] = system: Staphylococcus aureus ATCC 29213; assay: microbe, parasite or virus in culture; assay type: cell-based; conditions: for MIC: Staphylococcus aureus, ATCC29213
[2] = system: Staphylococcus aureus MRSA MC-1; assay: microbe, parasite or virus in culture; assay type: cell-based; conditions: for MIC: Staphylococcus aureus, MRSA
[3] = system: M. smegmatis; assay: MIC assay; assay type: cell-based; conditions: for MIC: Mycolicibacterium smegmatis, read-out: MIC M. smegmatis
[4] = system: Mycobacterium avium; assay: MIC assay; assay type: cell-based; conditions: Table 6; for MIC: Mycobacterium avium, read-out: MIC M. avium
[5] = system: Mycobacterium chelonae; assay: MIC assay; assay type: cell-based; conditions: Table 6
[6] = system: Mycobacterium fortuitum; assay: MIC assay; assay type: cell-based; conditions: Table 6; for MIC: Mycolicibacterium fortuitum, read-out: MIC M. fortuitum
[7] = system: Mycobacterium intracellulare; assay: MIC assay; assay type: cell-based; conditions: Table 6; for MIC: Mycobacterium intracellulare, read-out: MIC M. intracellulare
[8] = system: M. kansasii; assay: MIC assay; assay type: cell-based; conditions: Table 6; for MIC: Mycobacterium kansasii, read-out: MIC M. kansasii
[9] = system: Enterococcus faecium VRE 1; assay: organism not typed; assay type: cell-based; conditions: for MIC E. faecium VRE 1, G+: Table 3; for MIC: read-out: MIC VRE
[10] = system: Streptococcus pyogenes; assay: microbe, parasite or virus in culture; assay type: cell-based; conditions: for MIC: Streptococcus pyogenes, per-compound listing, Example 6, read-out: MIC S. pyogenes; for MIC S. pyogenes, G+: Table 3
[11] = system: Bacillus cereus; assay: microbe, parasite or virus in culture; assay type: cell-based; conditions: for MIC: Bacillus cereus, per-compound listing, Example 6, read-out: MIC B. cereus; for MIC B. cereus, G+ (anthrax surrogate): Table 3
[12] = system: C. elegans; assay: motility assay; assay type: in vivo; design: key to Movement score, 1/1600 / Movement score, 1/800 / Movement score, 1/400 / Movement score, 1/200 / Movement score, 1/100: normal (−); slow (+); very slow (++); not motile/paralyzed (+++); conditions: for Movement score, 1/100: dilution 1/100 of stock (10.24 μg/μL; SK-03-92 1.024 μg/μL); for Movement score, 1/100 / Movement score, 1/200 / Movement score, 1/400 / Movement score, 1/800 / Movement score, 1/1600: Ive 1 ng/μL in all wells; for Movement score, 1/200: dilution 1/200 of stock (10.24 μg/μL; SK-03-92 1.024 μg/μL); for Movement score, 1/400: dilution 1/400 of stock (10.24 μg/μL; SK-03-92 1.024 μg/μL); for Movement score, 1/800: dilution 1/800 of stock (10.24 μg/μL; SK-03-92 1.024 μg/μL); for Movement score, 1/1600: dilution 1/1600 of stock (10.24 μg/μL; SK-03-92 1.024 μg/μL), overnight 20° C.; for effect on worms at the lowest concentrations tested: at least triplicate
[13] = system: C. elegans L1 larvae; assay: developmental assay; assay type: in vivo; design: key to Developmental score, 1/1600 / Developmental score, 1/800 / Developmental score, 1/400 / Developmental score, 1/200 / Developmental score, 1/100: dead (+++); distressed (++); slightly delayed (+); the same as M9-only untreated wells (−); conditions: for Developmental score, 1/100: dilution 1/100; for Developmental score, 1/100 / Developmental score, 1/200 / Developmental score, 1/400 / Developmental score, 1/800 / Developmental score, 1/1600: after four days, Ive 1 ng/μL in each well; for Developmental score, 1/200: dilution 1/200; for Developmental score, 1/400: dilution 1/400; for Developmental score, 1/800: dilution 1/800; for Developmental score, 1/1600: dilution 1/1600
[14] = per-compound listing, Example 6, read-out: MIC S. aureus
[15] = per-compound listing, Example 6
[16] = Table 6, read-out: MIC S. aureus ATCC 29213

For `N#Cc1cccc(/C=C/Sc2ncccn2)c1` [SK-04-73], the “MIC S. aureus ATCC 29213” value ([1]; Table 6) was 512 µg/mL (≈ 2140 µM), the “MIC S. aureus MC-1” value ([2]; Table 6) was over 512 µg/mL and the “MIC M. smegmatis” value ([3]; Table 6) was 64 µg/mL (≈ 267 µM). For the same molecule, the “MIC M. avium” value [4] was 512 µg/mL (≈ 2140 µM), the “MIC M. chelonae” value [5] was 256 µg/mL (≈ 1070 µM) and the “MIC M. fortuitum” value [6] was 256 µg/mL (≈ 1070 µM). For the same molecule, the “MIC M. intracellulare” value [7] was 512 µg/mL (≈ 2140 µM) and the “MIC M. kansasii” value [8] was 128 µg/mL (≈ 535 µM).
Molecule `COc1cc(O)cc(/C=C/Sc2ccccc2)c1` [CL-4, Phenyl-E-(3-hydroxy-5methoxy)-styryl thioether] has an MIC [1, 14] of 16 µg/mL (≈ 61.9 µM), an MIC ([2]; read-out: MIC MRSA) of 32 µg/mL (≈ 124 µM) and an MIC E. faecium VRE 1, G+ [9] of 32 µg/mL (≈ 124 µM). For the same molecule, the MIC [9] was 32 µg/mL (≈ 124 µM), the MIC [10] was 8 µg/mL (≈ 31 µM) and the MIC S. pyogenes, G+ [10] was 8 µg/mL (≈ 31 µM). It also gave an MIC [11] of 16 µg/mL (≈ 61.9 µM), an MIC B. cereus, G+ (anthrax surrogate) [11] of 16 µg/mL (≈ 61.9 µM) and an MIC [3, 15] of 128 µg/mL (≈ 495 µM). The “Movement score, 1/100” value [12] was “+++”, the “Movement score, 1/200” value [12] was “+++” and the “Movement score, 1/400” value [12] was “++”. The “Movement score, 1/800” value [12] was “+”, the “Movement score, 1/1600” value [12] was “−” and the “Developmental score, 1/100” value [13] was “+++”. The “Developmental score, 1/200” value [13] was “+++”, the “Developmental score, 1/400” value [13] was “+++” and the “Developmental score, 1/800” value [13] was “−”. For the same molecule, the “Developmental score, 1/1600” value [13] was “−”.
For `COc1cc(O)cc(/C=C/c2ccsc2)c1` [CL-5, (E)-3-[2-(3-Hydroxy-5-methoxy)-vinyl]thiophene], the MIC [1, 14] was 16 µg/mL (≈ 68.9 µM), the MIC ([2]; read-out: MIC MRSA) was 32 µg/mL (≈ 138 µM) and the MIC E. faecium VRE 1, G+ [9] was 32 µg/mL (≈ 138 µM). The MIC [9] was 32 µg/mL (≈ 138 µM), the MIC [10] was 4 µg/mL (≈ 17.2 µM) and the MIC S. pyogenes, G+ [10] was 4 µg/mL (≈ 17.2 µM). It also gave an MIC [11] of 32 µg/mL (≈ 138 µM), an MIC B. cereus, G+ (anthrax surrogate) [11] of 32 µg/mL (≈ 138 µM) and an MIC [3, 15] of 128 µg/mL (≈ 551 µM). For the same molecule, the “Movement score, 1/100” value [12] was “+++”, the “Movement score, 1/200” value [12] was “+++” and the “Movement score, 1/400” value [12] was “+++”. For the same molecule, the “Movement score, 1/800” value [12] was “+++”, the “Movement score, 1/1600” value [12] was “++” and the “effect on worms at the lowest concentration tested (most active)” value ([12]; lowest concentration tested) was “severe distress”. The “effect on worms at the lowest concentrations tested” value [12] was “reduced motility, paralysis, or death”, the “effect at the two highest dilutions” value [13] was “death or delays in development” and the “Developmental score, 1/100” value [13] was “+++”. For the same molecule, the “Developmental score, 1/200” value [13] was “+++”, the “Developmental score, 1/400” value [13] was “+++” and the “Developmental score, 1/800” value [13] was “+++”. For the same molecule, the “Developmental score, 1/1600” value [13] was “+”.
Molecule `COc1cc(O)cc(C#Cc2ccccc2)c1` [SK-04-08] has an MIC [1, 16] of 32 µg/mL (≈ 143 µM), an MIC ([2]; read-out: MIC S. aureus MC-1) of 1 µg/mL (≈ 4.46 µM) and an MIC ([3]; Table 6) of 64 µg/mL (≈ 285 µM). It also gave an MIC [4] of 16 µg/mL (≈ 71.3 µM), an MIC [6] of 32 µg/mL (≈ 143 µM) and an MIC [7] of 16 µg/mL (≈ 71.3 µM). The MIC [8] was 32 µg/mL (≈ 143 µM), the “Movement score, 1/100” value [12] was “+++” and the “Movement score, 1/200” value [12] was “+++”. For the same molecule, the “Movement score, 1/400” value [12] was “++”, the “Movement score, 1/800” value [12] was “+” and the “Movement score, 1/1600” value [12] was “+”. For the same molecule, the “Developmental score, 1/100” value [13] was “+++”, the “Developmental score, 1/200” value [13] was “+++” and the “Developmental score, 1/400” value [13] was “−”. The “Developmental score, 1/800” value [13] was “−” and the “Developmental score, 1/1600” value [13] was “−”.
`CCOC(=O)/C=C\Sc1ccc(C(C)(C)C)cc1` [SK-04-57] gave an MIC [1, 16] of over 512 µg/mL, an MIC ([2]; read-out: MIC S. aureus MC-1) of over 512 µg/mL and an MIC ([3]; Table 6) of 16 µg/mL (≈ 60.5 µM). It also gave an MIC [4] of 64 µg/mL (≈ 242 µM), an MIC ([5]; read-out: MIC M. chelonae) of 8 µg/mL (≈ 30.3 µM) and an MIC [6] of 4 µg/mL (≈ 15.1 µM). The MIC [7] was 128 µg/mL (≈ 484 µM), the MIC [8] was 16 µg/mL (≈ 60.5 µM) and the “Movement score, 1/100” value [12] was “+”. For the same molecule, the “Movement score, 1/200” value [12] was “−”, the “Movement score, 1/400” value [12] was “−” and the “Movement score, 1/800” value [12] was “−”. The “Movement score, 1/1600” value [12] was “−”.
With `COc1cc(O)cc(/C=C/Oc2cccc(C)c2)c1` [Compound A9, 3-Methylphenyl-E-(3-hydroxy-5-methoxy)-styryl ether] the MIC [1, 14] was 16 µg/mL (≈ 62.4 µM), the MIC ([2]; read-out: MIC MRSA) was 32 µg/mL (≈ 125 µM) and the MIC E. faecium VRE 1, G+ [9] was 32 µg/mL (≈ 125 µM). For the same molecule, the MIC [9] was 32 µg/mL (≈ 125 µM), the MIC [10] was 32 µg/mL (≈ 125 µM) and the MIC S. pyogenes, G+ [10] was 32 µg/mL (≈ 125 µM). For the same molecule, the MIC [11] was 32 µg/mL (≈ 125 µM), the MIC B. cereus, G+ (anthrax surrogate) [11] was 16 µg/mL (≈ 62.4 µM) and the MIC [3, 15] was 64 µg/mL (≈ 250 µM). The “Movement score, 1/100” value [12] was “+++”, the “Movement score, 1/200” value [12] was “+++” and the “Movement score, 1/400” value [12] was “++”. The “Movement score, 1/800” value [12] was “++”, the “Movement score, 1/1600” value [12] was “+” and the “effect on worms at the lowest concentrations tested” value [12] was “reduced motility, paralysis, or death”. For the same molecule, the “Developmental score, 1/100” value [13] was “+++”, the “Developmental score, 1/200” value [13] was “+++” and the “Developmental score, 1/400” value [13] was “+++”. For the same molecule, the “Developmental score, 1/800” value [13] was “−” and the “Developmental score, 1/1600” value [13] was “−”.
In the case of `COc1ccc(O/C=C/c2cc(O)cc(OC)c2)cc1` [Compound A6, 4-Methoxyphenyl-E-(3-hydroxy-5methoxy)-styryl ether], the MIC [1, 14] was 32 µg/mL (≈ 118 µM), the MIC ([2]; read-out: MIC MRSA) was 64 µg/mL (≈ 235 µM) and the MIC E. faecium VRE 1, G+ [9] was 64 µg/mL (≈ 235 µM). The MIC [9] was 64 µg/mL (≈ 235 µM), the MIC [10] was 32 µg/mL (≈ 118 µM) and the MIC S. pyogenes, G+ [10] was 32 µg/mL (≈ 118 µM). For the same molecule, the MIC [11] was 64 µg/mL (≈ 235 µM), the MIC B. cereus, G+ (anthrax surrogate) [11] was 64 µg/mL (≈ 235 µM) and the MIC [3, 15] was 128 µg/mL (≈ 470 µM). For the same molecule, the “Movement score, 1/100” value [12] was “+++”, the “Movement score, 1/200” value [12] was “+++” and the “Movement score, 1/400” value [12] was “++”. The “Movement score, 1/800” value [12] was “+”, the “Movement score, 1/1600” value [12] was “−” and the “Developmental score, 1/100” value [13] was “+++”. For the same molecule, the “Developmental score, 1/200” value [13] was “+++”, the “Developmental score, 1/400” value [13] was “+” and the “Developmental score, 1/800” value [13] was “−”. The “Developmental score, 1/1600” value [13] was “−”.
